pIC50: −log10 of the molar value. Where a name gives a salt, the structure may show the parent alone.
Tests used:
human P2X4 receptor = human P2X4 receptor (Homo sapiens (Human), UniProt Q99571); assay: P2X4 receptor antagonist activity (ATP-induced intracellular calcium, Fura-2 AM); format: cell-based; conditions: 1321N1 cells stably expressing human P2X4 receptor; test substance 15 minutes before addition of ATP; Fura-2 AM F340/F380; read-out: Inhibitory activity IC50
Method: The ATP receptor (human P2X4) was introduced into the 1321N1 cells, and the cells were used as a stable ATP receptor expression system. The P2X4-expressing 1321N1 cells were seeded on a 96-well plate, cultured under the conditions of 37° C. and 5% CO2 for 24 hours, and used for calcium measurement. […] For the measurement, a microplate reader, Fluostar Optima (BMG Labtech), was used. The light emitted from a xenon lamp was passed through 340 nm and 380 nm filters, respectively, and irradiated on the cells, fluorescences of 510 nm, F340 and F380, emitted from the cells were measured, and change of the ratio F340/F380 was used as an index of change of intracellular calcium level. The measurement was performed by adding ATP to each well at a final concentration of 1 μM, and observing the ATP-induced Ca^2+ response over time.
The 1321N1 cells stably expressing human P2X4 receptor were seeded on a 96-well plate, cultured under the conditions of 37° C. and 5% CO2 for 24 hours, and then used for intracellular calcium measurement. Fura-2 AM, which is a calcium fluorescent indicator, was used for the intracellular calcium measurement. […] The ratio of fluorescence values obtained with excitation lights of 340 nm and 380 nm was used as an index of the change of intracellular calcium level, and the inhibitory activity of the test substance was calculated on the basis of the comparison with the value obtained in the absence of the test substance (control).

[1] = test system: mouse neuropathic pain model; assay: Analgesic activity in mouse neuropathic pain model (von Frey filament test); format: in vivo; conditions: for pain threshold of diseased limb (von Frey filament test): oral administration of 30 mg/kg, neuropathic pain model mice, versus vehicle administration group; for analgesic activity: oral administration, mouse neuropathic pain model (FIG. 1)
Method: Mouse neuropathic pain model was prepared according to the method of Tozaki-Saitoh H. et al. (Tozaki-Saitoh H., Tsuda M., Miyata H., Ueda K., Kohsaka S. and Inoue K.; P2Y12 Receptors in Spinal Microglia Are Required for Neuropathic Pain after Peripheral Nerve Injury. Neuroscience, 28(19): 4949-4956 (2008)). Under isoflurane anesthesia, back hair of mice was extensively shaved, the shaved parts were wiped with rubbing alcohol, and the mice were fixed in the prone position on a heating pad. The skins were cut and opened along the dorsal median line on the upper and lower sides of the head end of the sacroiliac bone in a length of about 1 cm each, with confirming the head end of the bone with fingers. The left lateral paravertebral muscle was separated in the sacral region, and then the ligament was separated. The sacroiliae rim and the upper part thereof were cut and opened along the pyramid, and the transverse process of the first sacral vertebra (S1) was confirmed. The transverse process of S1 was removed, the fourth lumber nerve (L4) running just under the transverse process was confirmed and cut, and the operative wound was sutured.
The pain threshold (paw withdrawal threshold (g)) was measured by stimulating the soles of mice with each of seven von Frey filaments (Stoelting Co., TOUCH-TEST SENSORY EVALUATOR) that gave different stimulation strengths, and determining presence or absence of withdrawal response. The 50% threshold was calculated according to the up down method with reference to the method of Chaplan et al. (Chaplan S R, Bach F W, Pogrel J W, Chung J M, Yaksh T L: Quantitative assessment of tactile allodynia in the rat paw, J. Neurosci. Method, 53:55-63 (1994)).
For evaluation of efficacy, each of the compounds described in Examples 21 and 42 was orally administered to the neuropathic pain model mice with a sonde for oral administration in mice, and effect thereof on the pain threshold measured in the von Frey filament test was observed.

Sequence of human P2X4 receptor (Q99571 whole entry): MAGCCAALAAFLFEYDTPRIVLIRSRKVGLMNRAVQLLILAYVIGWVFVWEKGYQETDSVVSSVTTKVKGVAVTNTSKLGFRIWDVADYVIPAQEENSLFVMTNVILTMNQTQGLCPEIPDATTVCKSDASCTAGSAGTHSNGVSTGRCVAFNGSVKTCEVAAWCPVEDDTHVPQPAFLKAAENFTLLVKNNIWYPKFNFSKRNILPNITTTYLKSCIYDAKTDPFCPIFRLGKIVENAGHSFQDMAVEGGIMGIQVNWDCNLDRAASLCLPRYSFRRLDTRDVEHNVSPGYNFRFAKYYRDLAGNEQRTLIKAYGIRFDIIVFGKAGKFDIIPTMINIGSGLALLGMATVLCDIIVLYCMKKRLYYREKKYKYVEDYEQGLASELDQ

SMILES	pIC50 (human P2X4 receptor)	pain threshold of diseased limb (von Frey filament test) [1]	analgesic activity [1]
Cl.O=C1CC(=O)N(c2ccc(-n3ccnc3CCc3ccccc3)cc2)c2ccc3ccccc3c2N1 [Example 21, 5-[4-(2-Phenethyl-1H-imidazol-1-yl)phenyl]-1H-naphtho[1,2-b][1,4]diazepine-2,4(3H,5H)-dione hydrochloride]	7.11	increased the pain threshold of diseased limb	superior analgesic activity
COc1cccc(CCc2nccn2-c2ccc(N3C(=O)CC(=O)Nc4c3ccc3ccccc43)cc2)c1.Cl [Example 42, 5-[4-[2-(3-Methoxyphenethyl)-1H-imidazol-1-yl]phenyl]-1H-naphtho[1,2-b][1,4]diazepine-2,4(3H,5H)-dione hydrochloride]	7.04	increased the pain threshold of diseased limb	superior analgesic activity
O=C1CC(=O)N(c2ccc(-n3ccnc3CCc3ccccc3F)cc2)c2ccc3c(c2N1)CCC3 [Example 67, 5-[4-[2-(2-Fluorophenethyl)-1H-imidazol-1-yl]phenyl]-5,8,9,10-tetrahydroindeno[4,5-b][1,4]diazepine-2,4(1H,3H)-dione]	7.28		
O=C1CC(=O)N(c2ccc(-n3ccnc3COc3ccccc3)cc2)c2ccc3ccccc3c2N1 [Example 68, 5-[4-[2-(Phenoxymethyl)-1H-imidazol-1-yl]phenyl]-1H-naphtho[1,2-b][1,4]diazepine-2,4(3H,5H)-dione]	6.10		
CC(C)(Cc1nnnn1-c1ccc(N2C(=O)CC(=O)Nc3c2ccc2ccccc32)cc1)c1ccccn1 [Example 69, 5-[4-[5-[2-Methyl-2-(pyridin-2-yl)propyl]-1H-tetrazol-1-yl]phenyl]-1H-naphtho[1,2-b][1,4]diazepine-2,4(3H,5H)-dione hydrochloride]	5.27		
O=C1CC(=O)N(c2ccc(-n3ccnc3CCc3ccccn3)cc2)c2ccc3ccccc3c2N1 [Example 71, 5-[4-[[2-(Pyridin-2-yl)ethyl]-1H-imidazol-1-yl]phenyl]-1H-naphtho[1,2-b][1,4]diazepine-2,4(3H,5H)-dione dihydrochloride]	6.23		
O=C1CC(=O)N(c2ccc(-c3nc[nH]c3-c3ccccc3)cc2)c2ccc3ccccc3c2N1 [Example 72, 5-[4-(5-Phenyl-1H-imidazol-4-yl)phenyl]-1H-naphtho[1,2-b][1,4]diazepine-2,4(3H,5H)-dione hydrochloride]	5.47		
CC1(C)CN(c2ccc(N3C(=O)CC(=O)Nc4c3ccc3ccccc43)cc2)C(CCc2ccccc2)=N1 [Example 74, 5-[4-(4,4-Dimethyl-2-phenethyl-4,5-dihydro 1H-imidazol-1-yl)phenyl]-1H-naphtho[1,2-b][1,4]diazepine-2,4(3H,5H)-dione hydrochloride]	5.60		
O=C1CC(=O)N(c2ccc(-n3ccnc3CCc3cccc(F)c3)cc2)c2ccc3c(c2N1)CCC3 [Example 79, 5-[4-[2-(3-Fluorophenethyl)-1H-imidazol-1-yl]phenyl]-5,8,9,10-tetrahydroindeno[4,5-b][1,4]diazepine-2,4(1H,3H)-dione hydrochloride]	7.41		
O=C1CC(=O)N(c2ccc(-n3ccnc3CNc3ccccc3)cc2)c2ccc3ccccc3c2N1 [Example 80, 5-[4-[2-[(Phenylamino)methyl]-1H-imidazol-1-yl]phenyl]-1H-naphtho[1,2-b][1,4]diazepine-2,4(3H,5H)-dione]	5.89		
COc1c(F)cccc1CCc1nccn1-c1ccc(N2C(=O)CC(=O)Nc3c2ccc2ccccc32)cc1 [Example 83, 5-[4-[(2-(3-Fluoro-2-methoxyphenyl)ethyl)-1H-imidazol-1-yl]phenyl]-1H-naphtho[1,2-b][1,4]diazepine-2,4(3H,5H)-dione hydrochloride]	7.06		

Reference: patent publication US9873683B2, “P2X4 receptor antagonist” (NIPPON CHEMIPHAR CO., LTD., priority 2013, dated 2018)
